Results on one compound are retold here after ChEMBL document CHEMBL3832082, “DailyMed|setid=a9a12198-b016-42ae-b9dc-d98fead7b79e | CARVEDILOL- carvedilol tablet, film coated|REMEDYREPACK INC”.

Data set [1] can be described thus: (§1) Pharmacokinetic parameters for Carvedilol following oral administration of Carvedilol tablets. The format is ADME, organism-based. To be noted: human, in vivo, dosed compound id 39, dosed compound name CARVEDILOL, tissue Plasma.
In data set [2] the test system is Homo sapiens. Described as §1. The class given is ADME, organism-based. To be noted: in vivo, po, dosed compound id 39, dosed compound name CARVEDILOL, tissue Plasma.

Consider `COc1ccccc1OCCNCC(O)COc1cccc2[nH]c3ccccc3c12` (stereo not given) [CARVEDILOL], for which the half-life in data set [1] (gender male and female, read-out: t1/2(app)) is 5 to 9 h. In data set [1], this compound had a CL/F of 500 to 700 mL/min and a bioavailability of 25 to 35%. In data set [2] (gender male and female), this compound returned a t1/2(app) of 7 to 11 h. Further, the Vss in data set [2] worked out at 115 L.

As usually defined, the CL/F is the apparent clearance, not corrected for the fraction that reaches the circulation. The term bioavailability denotes the share of a dose that reaches the circulation, judged against a reference dose that is usually intravenous. Higher therefore signals much systemic uptake.
